Data as given in patent US20230338363A1, “COMBINATION CHEMO-IMMUNOTHERAPY FOR PANCREATIC CANCER USING THE IMMUNOGENIC EFFECTS OF AN IRINOTECAN SILICASOME NANOCARRIER PLUS ANTI-PD-1” (The Regents of the University of California, priority 2020, published 2023).
Counter-ions that a name gives are not always drawn.

Legend:
orthotopic KPC tumor = assay: Efficacy and immune parameters (IVIS, IHC) in orthotopic KPC tumor model; format: in vivo, mouse
Method: Panels B and C) IHC analysis to determine CRT (panel B) and LC3B (panel C) expression at the orthotopic tumor site. Imaging intensity was quantitatively expressed as fold increase that was normalized to the saline group. Representative IHC images are shown on the right. Bar is 50 µm. Panel D) Quantitative assessment of HMGB 1 release. The IHC images were analyzed by Aperio ImageScope software to determine protein released from the damaged nuclei, as described in FIG. 22. Data are expressed as mean ± SEM, n=3. *, p<0.05; **, p<0.01; ***, p<0.001 (1-way ANOVA followed by a Tukey’s test).
Additional IHC analysis was undertaken using the tumor samples collected in FIG. 5, panel A. Quantitative assessment of: Panel A) the CD8^+/ FoxP3^+ cell ratio; Panel B), perforin; Panel C) granzyme B; Panel D) IFN-γ production; and Panel E) PD-L1 expression. Representative IHC images appear in FIG. 18, panels A-C. Data are expressed as mean ± SEM, n=3. *, p<0.05; **, p<0.01; ***, p<0.001 (1-way ANOVA followed by a Tukey’s test).
Tumor-bearing mice received IV injection to deliver an IRIN dose of 40 mg/kg (free IRIN or IRIN silicasome) per injection every 3 days for a total of 3 administrations. Control animals received saline only. Animals were sacrificed 72 h after the last injection. To confirm the impact on tumor growth, ex vivo bioluminescence imaging was performed to assess image intensity at the primary and metastatic tumor sites. Primary tumors were fixed in 10% formalin, followed by paraffin embedding and sectioning to provide 4 µm slices for IHC analysis in the UCLA Translational Pathology Core Laboratory (TPCL). The slides were scanned and images were assessed by using Aperio ImageScope software (Leica). Primary antibodies to CD8 (#14-0808-82) and FoxP3 (#13-5773-82) were purchased from ThermoFisher; CRT (ab2907), while antibodies to HMGB1 (ab18256), granzyme B (ab4059), perforin (ab16074) and IFN-γ (ab9657) were purchased from Abcam. The antibody to LC-3 (#0231-100/LC3-5F10) was purchased from Nanotools, while the antibody to PD-L1 (#64988) was purchased from Cell Signaling Technology.

PANC-1 cells = assay: Confirmative cellular studies (alkalization, autophagy inhibition, PD-L1 induction); format: cell-based, human; conditions: equivalent drug concentration 300 µM, 24 hrs
Method: To confirm the effect of IRIN, another PDAC cell line, i.e. PANC-1 cells, were used to study IRIN induced alkalization effect (panel A), autophagy inhibition (panel B) and PD-L1 induction (panel C). The treatments included free IRIN, IRIN silicasome and empty silicasome at equivalent drug concentration of 300 µM for 24 hrs. PBS served as a negative control. Bars: 10 µm. Signal intensity was quantified by Image J. At least three representative images were analyzed for each treatment. Data represents mean ± SD, n = 3. *p<0.05, **p<0.01, ***p<0.001 (1-way ANOVA followed by a Tukey’s test). […] No significant effect was observed when empty silicasome was tested.

[1] = pKa and % protonated drug (Henderson-Hasselbalch equation); format: physicochemical
Method: FIG. 9, panels A-D, illustrates a dose- and time-dependent study on IRIN-induced lysosomal alkalization effect in KPC cells. Panel A) Dose-dependence. KPC cells were treated with indicated free IRIN dose for 24 hours, followed by DND 99 and Hoechst dye co-staining, similar to FIG. 1, panel C. We were able to discern a major signal drop at 20 µM. IRIN accumulation in the KPC cells is indicated by white arrows. Panel B) Time-dependence. KPC cells were treated using 300 µM free IRIN for indicated time period, followed by DND 99/Hoechst co-staining, similar to panel A. We were able to observe a major DND 99 signal drop as early as 1 h post incubation. Quantification of DND 99 fluorescence intensity in panels A and B higher presented in FIG. 1, panel D. Panel C) Similar to the experiment described in FIG. 1, panel C, KPC cells were exposed to IRIN (300 µM) or chloroquine (CQ, 32 µM) for 24 h. The disappearance of the red fluorescence staining in the acidifying organellar environment in IRIN- and CQ-treated cells is as a result of the alkalization effect of these weak-base molecules. Bars are 10 µm. Panel D) The Henderson-Hasselbalch (H—H) equation allows calculation of % protonated drug at different pH values. Although 83.3% of IRIN molecules are protonated at pH 7.4, the equilibrium shifts to ~99% of the molecules at a lysosomal relevant pH ~4.5-5.5. […]

Compound: CCc1c2c(nc3ccc(OC(=O)N4CCC(N5CCCCC5)CC4)cc13)-c1cc3c(c(=O)n1C2)COC(=O)[C@]3(O)CC [IRIN, Irinotecan hydrochloride trihydrate]
- tumor size by bioluminescence intensity (IVIS) vs saline (orthotopic KPC tumor; 40 mg/kg IV on days 8, 11, 14, sacrifice day 17): not statistically significant
- IFN-γ production in the TME (IHC) (orthotopic KPC tumor; 40 mg/kg IV x3): significant increase
- LC3B staining intensity at tumor site (IHC) (orthotopic KPC tumor; 40 mg/kg IV x3): significantly increased staining intensity
- lysosomal pH, LC-3B generation and PD-L1 expression (PANC-1 cells): capable of neutralizing lysosomal pH, triggered LC-3B generation and increase PD-L1 expression
- % of molecules protonated ([1]; lysosomal relevant pH ~4.5-5.5): ~ 99%
- % of molecules protonated ([1]; pH 7.4): 83.3%
